# Source: PubChem BioAssay AID463199 (Broad Institute, 2010)
# Calls of active or inactive are those of the source.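 How the source made its calls: active means AC50, the dose giving half-maximal effect, exceeds a fixed cutoff for a compound that rescues yeast growth under heat; inactive means the rest, inconclusive results apart.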
# System: S. cerevisiae Burl-1 ts mutant growth, BacTiter-Glo, 38.5C 24 h
# Test: growth induction of Burl-1 ts yeast mutant, dose response, counter-screen for SUMOylation pathway inhibitor project, whole organism, S. cerevisiae, luminescence (AID 463199)
row,Structure (SMILES),AC50
1,COc1ccc(OC)c2c(N)c(C#N)c(C(F)(F)C(F)(F)F)nc12,> 42 µM (inactive)
2,C=CCC(NCCCO)c1cccc(OC)c1OC (configuration not stated),> 42 µM (inactive)
3,CCS(=O)(=O)N1CCCC(C(=O)NCc2cccnc2)C1 (configuration not stated),> 42 µM (inactive)
4,COc1ccc(NC(=O)CSc2nccc(C)n2)cc1,> 42 µM (inactive)
5,CC1(C)CC(=O)C(C(=O)c2ccccc2)C(=O)C1Cl (configuration not stated),> 42 µM (inactive)
6,CCN(C(=O)COC(=O)c1cc([N+](=O)[O-])ccc1N1CCOCC1)C1CCCCC1,> 42 µM (inactive)
7,CCCNC(=O)Cn1nc(C)n2c(cc3cc(F)ccc32)c1=O,> 42 µM (inactive)
8,CC(=O)Oc1cccc(N2C(=O)c3ccc(C(=O)Nc4c[nH]c(=O)[nH]c4=O)cc3C2=O)c1,> 42 µM (inactive)
9,COc1ccc(C(=O)CSc2nnc(CNC(=O)c3ccccc3)n2C)cc1,> 42 µM (inactive)
10,O=C(Nc1ccc(Cl)cc1)C1=Cc2ccccc2OC1,> 42 µM (inactive)
11,O=[N+]([O-])c1cccc(-c2nc3ccc([N+](=O)[O-])cc3[nH]2)c1,> 42 µM (inactive)
12,CCOC(=O)CNC(=O)c1cccnc1,> 42 µM (inactive)
13,CC(C)(C)NC(=O)NC(=O)CN1CCN(S(=O)(=O)c2ccc3c(c2)OCCO3)CC1,> 21 µM (inactive)
14,O=C1NC(=O)C(=Cc2ccc(N3CCOCC3)cc2)C(=O)N1,> 42 µM (inactive)
15,COc1ccc(C2=C(N)c3ccccc3C2=O)cc1,> 42 µM (inactive)
16,COc1cccc(OC)c1C(=O)Nc1ccc2c(c1)N(S(=O)(=O)c1cccs1)CCC2,> 42 µM (inactive)
17,Cc1cc(C)c(S(=O)(=O)NCC(c2cccnc2)N2CCN(Cc3ccccc3)CC2)c(C)c1 (configuration not stated),> 42 µM (inactive)
18,O=C(NC1CCCCC1)C(c1ccncc1)N(Cc1ccc2c(c1)OCO2)C(=O)C(F)(F)F (configuration not stated),> 42 µM (inactive)
19,COc1ccccc1/C=C/C(=O)c1c2c(c(C)[nH]c1=O)CCCC2,> 42 µM (inactive)
20,O=C(NC1CCCCCC1)C1CCN(S(=O)(=O)c2cccc3cccnc23)CC1,> 42 µM (inactive)
21,CC[n+]1c(/C=C(\C)SC)sc2ccccc21,> 42 µM (inactive)
22,CCN1C(=O)c2cccc3c(S(=O)(=O)Nc4ccc(OC)cc4OC)ccc1c23,> 42 µM (inactive)
23,Cc1ccc(NC(=O)Cn2nnc(C(=O)NCc3ccc4c(c3)OCO4)c2N)cc1,> 42 µM (inactive)
24,CCOc1ccc2nc(CN3CCN(Cc4ccccc4OCC)C(CCO)C3)ccc2c1 (configuration not stated),> 42 µM (inactive)

row,Structure (SMILES),AC50
1,CCc1ccccc1NC1c2ccccc2C(=O)N1c1cccnc1 (configuration not stated),> 42 µM (inactive)
2,O=S(=O)(Cc1ccccc1)N1CCN(c2ccccc2)CC1,> 42 µM (inactive)
3,O=C1COc2ccc(C(=O)COC(=O)c3ncc(Cl)c(Cl)c3Cl)cc2N1,> 42 µM (inactive)
4,O=c1c2ccccc2nc(SCc2nnc(-c3ccccc3)o2)n1-c1ccc(F)cc1F,> 42 µM (inactive)
5,O=C(CN1CCN(Cc2ccc(Cl)cc2)CC1)N/N=C/c1ccncc1,> 42 µM (inactive)
6,Cc1c(C(=O)N2CCCC2)c(S(=O)(=O)Nc2cccc(Br)c2)c(C)n1C,> 42 µM (inactive)
7,COc1ccc(NC(=O)Cn2c(=O)cnc3ccccc32)cc1S(=O)(=O)N1CCCCC1,> 42 µM (inactive)
8,CCN(CC)CCCN1C(=O)C(=O)/C(=C(/O)c2ccccc2)C1c1cc(OC)ccc1OC (configuration not stated),> 42 µM (inactive)
9,CCOC(=O)C1CCN(CC(O)COc2ccc(C(C)(C)C)cc2)CC1 (configuration not stated),> 42 µM (inactive)
10,N=c1c[n+](C2CCCCC2)[n-]o1,> 42 µM (inactive)
11,O=Cc1ccc(Oc2cccc(C(F)(F)F)c2)nc1,> 42 µM (inactive)
12,CCOC(=O)c1cc([N+](=O)[O-])c([N+](=O)[O-])cc1NC(C)=O,> 42 µM (inactive)
13,COC(=O)Nc1ccc(S(=O)(=O)N2CCCC(C(=O)NC3CCS(=O)(=O)C3)C2)cc1 (configuration not stated),> 42 µM (inactive)
14,Cc1n[nH]c(C)c1S(=O)(=O)N(CC(=O)NC1CCCC1)c1ccc(C(C)C)cc1,38.7 µM
15,CN(C)c1ccc(/C=N\Nc2ccccn2)cc1,> 42 µM (inactive)
16,CN(C)CCN(Cc1ccc(Cl)cc1)c1ccccn1,36.3 µM
17,O=C(O)CC(NC(=O)OCc1ccccc1)c1ccc(Br)cc1 (configuration not stated),> 42 µM (inactive)
18,CCCOC(=O)c1c(NC(=O)/C=C/c2cnn(C)c2C)sc(C(=O)OC)c1C,> 42 µM (inactive)
19,CCC(C)NCCCCOc1cc(C)cc(C(C)C)c1 (configuration not stated),> 42 µM (inactive)
20,Cc1ccc(NC(=O)CN2C(=O)COc3ccc(S(=O)(=O)N4CCOCC4)cc32)cc1F,> 42 µM (inactive)
21,CCOC(=O)CSc1nc2ccccc2c(=O)n1CC(C)C,> 42 µM (inactive)
22,CCOc1cc(-c2ccccc2)nc(N)n1,> 42 µM (inactive)
23,Cc1ccc(NC(=O)N[C@H](C(=O)O)C(C)C)c(C)c1,> 42 µM (inactive)
24,COc1cccc(/C=N/NC(=O)CNC(=O)c2ccco2)c1O,> 42 µM (inactive)

row,Structure (SMILES),AC50
1,CCOC(=O)N1CCN(C(=O)c2ccccc2-c2ccccc2)CC1,> 42 µM (inactive)
2,Cc1cc(C#Cc2c(-c3ccccc3)n(C)c3ccccc23)ccc1F,> 42 µM (inactive)
3,Cc1ccc(NS(=O)(=O)c2c(C)[nH]c(C)c2C(=O)N2CCCCC2)c(Cl)c1,> 42 µM (inactive)
4,COc1cc2c(cc1OC)C(c1ccccc1[N+](=O)[O-])N(C(C)=O)CC2 (configuration not stated),> 42 µM (inactive)
5,COc1cc(/C=N/NC(=O)c2ccncc2)ccc1OC(=O)c1ccco1,> 42 µM (inactive)
6,Cc1cc(C)c(OCC(=O)N/N=C/c2ccco2)c(C)c1,> 42 µM (inactive)
7,COc1ccccc1NC(=S)N(Cc1ccccc1)Cc1cccs1,> 42 µM (inactive)
8,CCCCCCCN1C(Nc2ccccc2)=NC[C@@H]1CC(C)C,> 21 µM (inactive)
9,COc1ccc(NC2=C(C)C(=O)CC2)cc1,> 42 µM (inactive)
10,CCC1(CC)NC(=O)N(CC(=O)OCC(=O)NC(=O)c2ccccc2)C1=O,> 42 µM (inactive)
11,O=C(OCC#CCSc1nnc(-c2ccccc2)o1)c1cc2ccccc2o1,> 42 µM (inactive)
12,COc1cc([C@@H]2CC=C(C(=O)O)[C@H](c3ccccc3F)N2S(=O)(=O)c2ccc(C)cc2)cc(OC)c1OC,> 42 µM (inactive)
13,O=C1CC(=O)C(n2cncn2)C(c2ccc(Cl)cc2Cl)C1 (configuration not stated),> 42 µM (inactive)
14,O=C(NC1CCCCC1)c1ccc2c(=O)n(CC3CCCO3)c(=O)[nH]c2c1 (configuration not stated),> 42 µM (inactive)
15,COCCCNC(=O)c1cc2cc([N+](=O)[O-])cc(OC)c2oc1=O,> 42 µM (inactive)
16,O=C(CC1(CC2=NS(=O)(=O)c3ccccc3N2)CCCC1)NCCc1ccccc1,> 42 µM (inactive)
17,Cc1[nH]n(-c2ccccc2)c(=O)c1C(C[N+](=O)[O-])c1ccc(Br)cc1 (configuration not stated),42.1 µM
18,Cc1cccc2nc3ccccc3cc12,> 42 µM (inactive)
19,CCCCc1ccc(NC(=S)NCc2cccs2)cc1,> 42 µM (inactive)
20,Cc1ccc(-c2nnc(SCC#N)n2N)cc1,> 42 µM (inactive)
21,CCOc1ccc(Cl)cc1CNc1nnnn1CC,> 42 µM (inactive)
22,CN1/C(=C\C(=O)COC(=O)c2ccc([N+](=O)[O-])o2)C(C)(C)c2ccccc21,> 42 µM (inactive)
23,COC(=O)C1(Cc2ccc(O)cc2)OC(=O)C(O)=C1c1ccc(O)cc1 (configuration not stated),> 42 µM (inactive)
24,Cc1cc(O)c(/C=N/Nc2cccc(Cl)c2)c(=O)o1,> 42 µM (inactive)
